According to patent US20250152609A1, “SALICYLIC ACID COMPOSITIONS AND USES THEREOF” (priority 2022, published 2025):
Converted amounts (≈) assume the structure as drawn. Like-named read-outs stand apart in the source and are kept apart here.

Tests used:
[1] = Analysis of salicylic acid and its metabolites in urines of treated mice (HPLC-MRM-MS); format: in vivo; conditions: for share of ingested SA found in the urines in this form: Filipendula ulmaria extract with 1.3% SA, total 40 mg in 8 doses over 24 h, oral
Method: A: Comparison of RT from analytical standards of salicylic acid (SA) (1) and its metabolites […] (DHBA) (2) and salicyluric acid (SUA) (3) and peaks found in urine samples collected from the group treated with Filipendula ulmaria extract (Fil). Analysis was performed on a SunFire™ C18 ([…], 3.0 mm×150 mm) column (Waters). 5% MeCN (A) and MeCN (B) both containing 0.1% of formic acid were used as mobile phase. A gradient of 0 to 100% B in 20 min was applied at a flow rate of 0.8 mL/min. B: Concentration, amounts (in samples collected over a 3-hour-period) and cumulative amounts of salicylic acid (SA) (1) and its metabolites 2,3-dihydroxybenzoic acid (DHBA) (2) and salicyluric acid (SUA) (3) found in urine samples collected from groups treated with Filipendula ulmaria extract (F). Cumulative amounts are the cumulated amounts of the respective compounds in the urine over time up to the indicated timepoint. Numbers on x-axis indicate collection time. Analysis was performed by HPLC-MRM-MS using the chromatographic conditions described in A.
The urines collected from control groups as described in Example 3 were compared against urines collected from mice treated with different combinations of plant extracts. The urines were analyzed using HPLC-UV/MS on a SunFire C18 column column. 5% MeCN (A) and MeCN (B) both containing 0.1% of formic acid were used as mobile phase. A gradient of 0 to 100% B in 20 min was applied at a flow rate of 0.8 mL/min. MS scans were recorded in positive and negative ion modes (ESI+/−). Major additional peaks in the groups treated with a mixture of Filipendula ulmaria-Epilobium parviflorum were identified as salicylic acid (SA) (1), 2,3-dihydroxybenzoic acid (DHBA) (2), and salicyluric acid (SUA) (3). FIG. 3A compares the RT from analytical standards of salicylic acid (SA) (1) and its metabolites salicyluric acid (SUA) ([…]) and 2,3-dihydroxybenzoic acid (DHBA) (2), and peaks found in urine samples collected from groups treated with Filipendula extracts. The exact mass of the three molecules was confirmed using high-resolution mass spectrometry. Further, the three identified metabolites were quantified in the urine samples by MRM—with the following transitions (m z): 136.5→65.0, 136.5→92.9 (SA); 152.9→108.9, 152.9→80.9 (DHBA); 194.0→150.0, 194.0→92.9 (SUA) and pure analytical standards that were diluted in urine from negative controls for the calibration curve.
The amounts of SA, SUA et DHBA were quantified in the urine of mice after absorption of an extract of Filipendula ulmaria containing 1.3% of SA at a total dose of 40 mg divided in 8 equal doses over 24 h as described above (Example 3, in-vivo efficacy studies).

[2] = system: E. coli CFT073 adhesion to human urinary bladder cells (T24); experiment: In vitro adhesion test (ADH): adhesion of E. coli to human bladder cells, cfu plate count; format: cell-based; conditions: for reduction of adhesion of E. coli CFT073 on urinary bladder cells: 1 h, adhesion <50% of control = significant, FIG. 1C
Method: In Vitro Adhesion Test (ADH)—Host-Pathogen-Interaction Assessed by In Vitro Adhesion to Human Cells Adhesion of E. coli to bladder epithelium was established in cell culture. Upon exposure to E. coli an epithelial cell detachment was observed, in a manner similar to in vivo exfoliation. The test was miniaturized by growing the epithelium cell cultures in 96-well plates instead of the classical 24-well plates.
The test samples were added prior to the start of the adhesion process. Bladder cells grown to confluence in 96-well plates were exposed to E. coli (50 μL of E. coli at 1.4*10^7 cfu/mL in each well) for 1 h. After 1 h, non-adhered E. coli were rinsed off and the adhered E. coli were detached and enumerated by plate counting colony-forming-units (cfu). Enumeration was automatized using a spiral plate count apparatus which further improved the test-variability.
The E. coli adhesion test was run in absence (given as 100% adhesion) and presence of different concentrations of the agents. […] Human cytotoxicity measurements of the mitochondrial activity (MTT) excluded side-effects of the agents.
Results are presented in FIG. 1C where relative adhesion (ADH) is expressed in percent (no inhibition control=100%; buffer was used instead of the treatments). All adhesion values<50% are defined as a significant inhibition.
Anti-adhesive effect is measured in vitro (standard method) using centrifuged extracts (Fu1) of Filipendula ulmaria (F) and Epilobium parviflorum (E) using human epithelial bladder cells (T24 ATCC® HTB-4™ Homo sapiens urinary bladder cell lines).

E. coli = experiment: In vitro antibacterial assay (MIC), E. coli growth in solution in 96-well plates, plate counting; format: cell-based; conditions: for MIC: Escherichia coli
Method: E. coli growth in solution was measured in 96-well plates. Absence and presence of different concentrations of the test agent during exponential growth determined the MIC (minimal inhibitory concentration) value. E. coli enumeration was by the plate-counting method (ufc) as described above.

E. coli CFT073 = experiment: In vivo UTI mouse model: living E. coli in bladder homogenates (bladder adhesion); parameters: species or system mice
Excerpt: (§1) An in vivo test of UTI (urinary tract infection) was established and implemented for the identification of active plant extracts and compounds. […] which were age matched females were adapted to the clean, non-septic laboratory conditions. The experiment started with a 2 days nutrition enriched by glucose in order to facilitate the subsequent UTI infection. Each compound, or plant extract was then applied at various concentrations by 8 consecutive intestinal ingestions by gavage-devices over the duration of 24 h. Each ingestion comprised a volume of 100 μL solution. During these 24 h the mice were hold in metabolic cages. The urine was collected every 3 h to analyze diuresis effects. For the subsequent UTI infection*, the isolate E. coli CFT073 (commercially available at DSM, originating from human UTI) was applied trans-urethral into the bladder and incubated in vivo for a 3 h duration and free movements in normal cages. Mice were euthanized and living E. coli were enumerated in bladder homogenates (homogenization of 12 bladder for living bacteria counting (cfu)), and organ morphology were assessed by histology microscopy. *UTI Infection with 50 μL of E. coli (CFT073) containing […] inoculated in the bladder (in another experiment, the in vivo infection was run similarly, but with slightly less germs 3.3×10^6 or 5×10^6 germs per inoculation).
The in-vivo anti-adhesion effect of the various substances and extracts of the invention were tested in vivo using a mouse model as described above by giving orally 100 μL of test substance every 3 hours for 24 h prior to inoculating E. coli in the bladder 3 h before measuring E. coli in the bladder. At the end of each assay, mice are euthanized, and their bladder homogenized for E. coli measurements.

[3] = Diuretic effects: urine collected over 24 h in the mouse model; format: in vivo; conditions: 68.8 μg/100 μL orally every 3 h; urine of 6 mice over 24 h
Excerpt: as §1, with “For the subsequent UTI infection*, the isolate E. coli CFT073 (commercially available at DSM, originating from human UTI) was applied trans-urethral into the bladder and incubated in vivo for a 3 h duration and free movements in normal cages.” left out
The urines were collected from control groups and from mice treated with different agents. […] Each value has been calculated from the total urine collected from 6 mice.

[4] = CHHeNCrL (so in the source); i.e. C3H/HeNCrl), mouse, in vivo
[5] = E. coli, 24 h exponential growth, pure substances and cranberry control
[6] = as given in the legend of FIG. 1F, read-out: prevention of growth of E. coli (MIC)

Compound | cumulated amounts present in the urine [1, 4] [µg] | reduction of adhesion of E. coli CFT073 on urinary bladder cells ([2]; 2.5 mg/mL) | reduction of adhesion of E. coli CFT073 on urinary bladder cells ([2]; 5 mg/mL) | Observation of microbial culture (E. coli; 0.3125 mg/mL, 24 h) | Observation of microbial culture (E. coli; 0.625 mg/mL, 24 h) | Observation of microbial culture (E. coli; 1.25 mg/mL, 24 h) | Observation of microbial culture (E. coli; 2.5 mg/mL, 24 h) | Observation of microbial culture (E. coli; 5 mg/mL, 24 h) | MIC (minimal inhibitory concentration) (E. coli; [5]) | MIC (E. coli; [6]) [µg/mL] | share of ingested SA found in the urines in this form ([1]; mice) [%] | further results
O=C(O)c1cccc(O)c1O [2,3-Dihydroxybenzoic acid, 2,3-dihydroxybenzoic acid] | 68 | an effect | an effect | growth | growth * | no growth | no growth | no growth | MIC at 1.25 mg/mL | 2500 (≈ 16.2 mM) | – | MIC (minimal inhibitory concentration) (E. coli; E. coli, 24 h exponential growth, pure substances and cranberry control, listed as 2): 5000 µg/mL (≈ 32.4 mM)
O=C(O[C@H]1[C@@H]2OC(=O)c3cc(O)c(O)c(O)c3-c3c4cc(c(O)c3O)Oc3c(cc(O)c(O)c3O)C(=O)O[C@H]3C(O)O[C@@H]5COC(=O)c6cc(O)c(O)c(O)c6-c6c(cc(c(O)c6O)Oc6c(cc(O)c(O)c6O)C(=O)O[C@H]1C(O)O[C@@H]2COC4=O)C(=O)O[C@H]5[C@@H]3OC(=O)c1cc(O)c(O)c(O)c1)c1cc(O)c(O)c(O)c1 (stereo partly shown) [Oenothein B] | – | – | – | – | – | – | – | – | MIC at 1.3 mg/mL | – | – | identification of the compound and its metabolites by LC-MS in the collected urine samples ([1]; mouse, in vivo, po): not identified; number of adhered bacteria E. coli lower than in the controls (E. coli CFT073; 0.065 mg/100 mL, inoculation 3.28×5×10^6 cfu): 75.12%; Observation of microbial culture (E. coli; 0.65 mg/mL): growth; Observation of microbial culture (E. coli; 1.3 mg/mL): no growth; Observation of microbial culture (E. coli; 1.9 mg/mL): no growth; Observation of microbial culture (E. coli; 2.6 mg/mL): no growth; Observation of microbial culture (E. coli; 3.25 mg/mL): no growth; MIC (E. coli; 24 h, read-out: MIC (minimal inhibitory concentration)): 1300 µg/mL (≈ 0.829 mM); MIC (E. coli; read-out: prevention of growth of E. coli (MIC)): 1300 µg/mL (≈ 0.829 mM)
O=C(O)c1ccccc1O [Salicylic acid, salicylic acid] | 84 | adhesion reduction efficacy | adhesion reduction efficacy | growth | growth | growth | growth | no growth | MIC at 5 mg/mL | 5000 (≈ 36.2 mM) | 5.4 | reduction of adhesion of E. coli CFT073 on urinary bladder cells ([2]; 1.25 mg/mL): adhesion reduction efficacy; concentration necessary for inhibition of E. coli adhesion to human bladder epithelium ([2]; for 1 hour): 2.5 mg/mL; inhibitory effect on the bacterial infection (adhesion) (E. coli CFT073; 0.05 mg/100 μL by gavage 8 times in 24 h, 5×10^7 cfu E. coli trans-urethral, n=6 mice): −60%; inhibitory effect on the bacterial infection (adhesion) (E. coli CFT073; 3.3×10^6 cfu trans-urethral): −61.3%; MIC (E. coli; 24 h, E. coli, 24 h exponential growth, pure substances and cranberry control, read-out: MIC (minimal inhibitory concentration)): 5000 µg/mL (≈ 36.2 mM)
O=C(O)CNC(=O)c1ccccc1O [Salicyluric acid, salicyluric acid] | – | – | – | growth | growth | growth | growth * | no growth | MIC at 5 mg/mL | 2500 (≈ 12.8 mM) | 32.0 | cumulated amounts present in the urine ([1]; mice, FIG. 3B): 707 µg; MIC (minimal inhibitory concentration) (E. coli; E. coli, 24 h exponential growth, pure substances and cranberry control, listed as 3): 1250 µg/mL (≈ 6.4 mM)
quercetin-4′-O-glucoside [Spiraeoside] | – | – | – | – | – | – | – | – | – | – | – | % variation versus Negative Control (water), urine [3]: −9.10%; % variation versus Positive Control (Cranberry), urine [3]: −4.20%
